According to ChEMBL document CHEMBL4651402, “Screening of ~5500 FDA-approved drugs and clinical candidates for anti-SARS-CoV-2 activity” (2021):

Test system: SARS-CoV-2
Assay: microbe, parasite or virus in culture
Conditions: Severe acute respiratory syndrome coronavirus 2, Vero C1008, 48 h

SMILES	IC50	IC50 (read-out: pIC50 (converted))
C1CCC2(C1)C1CN(CC3CC3)CC2CN(CC2CC2)C1	> 20 µM	> 20 µM
ClC1C(Cl)C(Cl)C(Cl)C(Cl)C1Cl (centres undefined)	> 20 µM	> 20 µM
COC(=O)C1=C(C)NC(C)=C(C(=O)OCCCN2CCC(c3ccccc3)(c3ccccc3)CC2)C1c1cccc([N+](=O)[O-])c1 (centres undefined)	> 20 µM	> 20 µM
CNS(=O)(=O)CCc1ccc2[nH]cc(C3CCN(C)CC3)c2c1	> 20 µM	> 20 µM
NCC(=O)c1ccccc1	> 20 µM	> 20 µM
CN(C)CCN(Cc1cccs1)c1ccccn1	> 20 µM	> 20 µM
CC12CCC3C(CC=C4CC(OS(=O)(=O)O)CCC43C)C1CCC2=O (centres undefined)	> 20 µM	> 20 µM
CC(C)C[C@H](NC(=O)OCC1c2ccccc2-c2ccccc21)C(=O)O	> 20 µM	> 20 µM
CC12CCC(=O)C=C1CCC1C2C(=O)CC2(C)C1CCC2(O)C(=O)CO (centres undefined)	> 20 µM	> 20 µM
CNc1ccccc1C(=O)O	> 20 µM	> 20 µM
CC1=C(CC(=O)O)c2cc(F)ccc2/C1=C\c1ccc([S+](C)[O-])cc1 (centres undefined)	> 20 µM	> 20 µM
COC(=O)C1=COC(C)C2CN3CCc4c([nH]c5ccccc45)C3CC12 (centres undefined)	> 20 µM	> 20 µM
CCN1CC2CN(C)CC(C1)C2OC(=O)c1ccc(Cl)cc1 (centres undefined)	> 20 µM	> 20 µM
Nc1ncnc2c1ncn2C1OC(COP(=O)(O)O)C(O)C1O (centres undefined)	> 20 µM	> 20 µM
CC12CCC(C[N+](C)(CCC[N+](C)(C)C)C1)C2(C)C (centres undefined)	> 20 µM	> 20 µM
COc1ccc2oc3ccccc3c(=O)c2c1	> 20 µM	> 20 µM
OC1CCCCC1N1CCC(c2ccccc2)CC1 (centres undefined)	> 20 µM	> 20 µM
CCN(CC)CCOC(c1ccccc1)c1ccccc1	> 20 µM	> 20 µM
CCC[C@@]1(CCc2ccccc2)CC(O)=C([C@H](CC)c2cccc(NS(=O)(=O)c3ccc(C(F)(F)F)cn3)c2)C(=O)O1	> 20 µM	> 20 µM
O=C(Nc1ccccc1F)N[C@@H]1N=C(c2ccccc2)c2ccccc2NC1=O	> 20 µM	> 20 µM
CN1CCc2cc3c(c4c2[C@@H]1Cc1ccccc1-4)OCO3	> 20 µM	> 20 µM
O=C(O)COc1ccc(C(=O)c2cccs2)c(Cl)c1Cl	> 20 µM	> 20 µM
NCCCCCCN	> 20 µM	> 20 µM

SMILES	IC50	IC50 (read-out: pIC50 (converted))
CC(=O)S[C@@H]1CC2=CC(=O)CCC2(C)C2CCC3(C)C(CC[C@@]34CCC(=O)O4)C21 (some centres undefined)	> 20 µM	> 20 µM
COc1ccc2c3c1O[C@H]1[C@@H](OC(C)=O)C=C[C@H]4[C@@H](C2)N(C)CC[C@@]341	> 20 µM	> 20 µM
N#Cc1cc2c(OCC(O)CN3CCN(C(c4ccccc4)c4ccccc4)CC3)cccc2[nH]1 (centres undefined)	> 20 µM	> 20 µM
COc1ccc(/C=C/C(=O)O)cc1OC	> 20 µM	> 20 µM
CCC(=O)OCC(=O)[C@@]1(OC(=O)CC)C(C)CC2C3CCC4=CC(=O)C=CC4(C)[C@@]3(Cl)C(O)CC21C (some centres undefined)	> 20 µM	> 20 µM
NS(=O)(=O)c1ccc(N2CCCCS2(=O)=O)cc1	> 20 µM	> 20 µM
O=C1Nc2ccc(Cl)cc2C(/C=C/C2CC2)(C(F)(F)F)N1 (centres undefined)	> 20 µM	> 20 µM
NC(=O)CN1CCCC1=O	> 20 µM	> 20 µM
CC1(C)C2=CCC3C(CCC4(C)C3CC[C@]4(C)O)C2(C)Cc2cnoc21 (some centres undefined)	> 20 µM	> 20 µM
CC(=O)OC[C@H]1O[C@@H](S)[C@H](OC(C)=O)[C@@H](OC(C)=O)[C@@H]1OC(C)=O	> 20 µM	> 20 µM
CNc1ncnc2c1ncn2[C@@H]1O[C@H](CO)[C@@H](O)[C@H]1O	> 20 µM	> 20 µM
O=C(NC(CO)C(O)c1ccc([N+](=O)[O-])cc1)C(Cl)Cl (centres undefined)	> 20 µM	> 20 µM
COc1ccc(/C=C/C(=O)Nc2ccccc2C(=O)O)cc1OC	> 20 µM	> 20 µM
CCn1cnc(C(=O)NC)c1C(=O)NC	> 20 µM	> 20 µM
CC(=O)OCC(=O)[C@@]1(O)CCC2C3CCC4=CC(=O)CCC4(C)C3C(O)CC21C (some centres undefined)	> 20 µM	> 20 µM
CC1=CCC2C3Cc4ccc(O)c5c4C2(CCN3C)C1O5 (centres undefined)	> 20 µM	> 20 µM
CCCN1CCCC2Cc3nc(N)ncc3CC21 (centres undefined)	> 20 µM	> 20 µM
CC[C@]12C=CCN3CCC4(c5ccc(OC)cc5N(C)[C@H]4[C@](O)(C(=O)OC)[C@@H]1OC(C)=O)C32 (some centres undefined)	> 20 µM	> 20 µM
CC12CCC(=O)C=C1CCC1C2CCC2(C)C1CC[C@H]2O (some centres undefined)	> 20 µM	> 20 µM
CC1CC(OC(=O)C2CCC(=O)N2)CC(C)(C)C1 (centres undefined)	> 20 µM	> 20 µM
O[C@H]1[C@H](O)[C@@H](O)O[C@H]2COC(c3ccccc3)O[C@H]12 (some centres undefined)	> 20 µM	> 20 µM
CCN1C[C@@]2(COC)C3[C@@H](OC)[C@H]4[C@H]1C3([C@@H]1C[C@@]3(O)[C@H](OC(=O)c5ccccc5)[C@@H]1[C@]4(OC(C)=O)[C@@H](O)[C@@H]3OC)[C@H](OC)C[C@H]2O	> 20 µM	> 20 µM
CC/C(=C(\c1ccc(OCCN(C)C)cc1)c1cccc(O)c1)c1ccccc1	> 20 µM	> 20 µM

SMILES	IC50	IC50 (read-out: pIC50 (converted))
CC(=O)C12OC(C)(C)OC1CC1C3CCC4=CC(=O)CCC4(C)C3CCC12C (centres undefined)	> 20 µM	> 20 µM
CN1CC(CN(CCN=[N+]=[N-])S(C)(=O)=O)=CC2c3cccc4[nH]cc(c34)CC21 (centres undefined)	> 20 µM	> 20 µM
CCN(CC)CC/C(=N\OC(=O)Nc1ccc(OC)cc1)c1ccccc1	> 20 µM	> 20 µM
COC1CCC2(C)C(=CCC3C2CCC2(C)C(C(C)=O)CCC32)C1 (centres undefined)	> 20 µM	> 20 µM
O=C1CCCN1CC1CCN(c2ccnc(C(F)(F)F)n2)CC1	> 20 µM	> 20 µM
CN(C)CCOc1ccc2c(=O)c3ccc(OCCN(C)C)cc3oc2c1	> 20 µM	> 20 µM
NC(=O)OC[C@@H](N)Cc1ccccc1	> 20 µM	> 20 µM
CC(=O)Oc1ccc2c(c1)CCC1C2CCC2(C)C(O)CCC12 (centres undefined)	> 20 µM	> 20 µM
O=C1CCN2C(=C1C(=O)NC1CCN(CCCn3c(=O)[nH]c4ccccc43)CC1)Nc1ccccc12	> 20 µM	> 20 µM
NC(C(=O)NC1C(=O)N2C(C(=O)O)=C(CSc3c[nH]nn3)CSC12)c1ccc(O)cc1 (centres undefined)	> 20 µM	> 20 µM
NS(=O)(=O)c1cc(C(=O)NN2CC3C4CCC(C4)C3C2)ccc1Cl (centres undefined)	> 20 µM	> 20 µM
O=C(O)c1ccc(NC(=O)C(Cc2ccc(O)cc2)NC(=O)c2ccccc2)cc1 (centres undefined)	> 20 µM	> 20 µM
CCN1C[C@]2(OC(=O)c3ccccc3NC(C)=O)CC[C@H](OC)[C@@]34[C@@H]2C[C@@H]([C@@H]13)[C@@]1(O)C[C@H](OC)[C@H]2C[C@@H]4[C@]1(O)[C@H]2OC	> 20 µM	> 20 µM
c1ccc(C(CCN2CCCCC2)c2ccccc2)cc1	> 20 µM	> 20 µM
COC1=C[C@@H]2C3=C([C@@H]2C1=O)[C@@H](NC(C)=O)CCc1cc(OC)c(OC)c(OC)c13	> 20 µM	> 20 µM
CC12C=CC(=O)C=C1CCC1C2CCC2(C)C(O)CCC12 (centres undefined)	> 20 µM	> 20 µM
CC(=O)OCC(=O)[C@@]1(O)[C@H](C)CC2C3CCC4=CC(=O)C=CC4(C)[C@@]3(F)C(O)CC21C (some centres undefined)	> 20 µM	> 20 µM
CC(=O)OCC(=O)[C@@]1(O)CCC2C3C[C@H](C)C4=CC(=O)C=CC4(C)C3C(O)CC21C (some centres undefined)	> 20 µM	> 20 µM
CC12C=CC(=O)C=C1CCC1C2CCC2(C)C(=O)CCC12 (centres undefined)	> 20 µM	> 20 µM
N[C@@]1(C(=O)O)CC[C@H]2[C@H](C(=O)O)[C@H]21	> 20 µM	> 20 µM
NC1CCN(c2cccc(Cl)n2)CC1	> 20 µM	> 20 µM
